{"source": "patent US20070128217A1", "about": "(priority 2003, published 2007)", "key": {"[1]": {"system": "rabbit serum obtained by immunizing a rabbit with the SARS-CoV strain Frankfurt 1", "format": "binding", "design": "Binding of a rabbit serum to linear peptides / Binding of a rabbit serum to looped peptides / Rabbit serum linear peptides / Rabbit serum looped peptides / Binding of a rabbit serum to linear peptides of protein N of SARS-CoV Urbani (Rabbit serum linear peptides) / Binding of a rabbit serum to looped/cyclic peptides of protein N of SARS-CoV Urbani (Rabbit serum looped peptides): unit not given here"}, "[2]": {"system": "control sera (pooled serum of ten healthy LUMC hospital workers; commercial negative donor pooled serum from the Dutch bloodbank)", "format": "binding, human", "design": "Binding of Control serum LUMC to linear peptides / Binding of Control serum Blood-bank to linear peptides / Binding of Control serum LUMC to looped peptides / Binding of Control Serum Blood-Bank to Looped peptides / Binding of Control serum LUMC to linear peptides of the protein M of SARS-CoV Urbani / Binding of Control serum Blood-bank to linear peptides of the protein M of SARS-CoV Urbani / Binding of Control serum LUMC to looped peptides of the protein M of SARS-CoV Urbani / Binding of Control Serum Blood-Bank to Looped peptides of the protein M of SARS-CoV Urbani: unit not given here"}, "[3]": {"system": "antibodies in sera from SARS patients (sera 1a, 1b, 2, 6, 37, 62, London, SARS-yellow, SARS-green)", "format": "binding, human", "design": "Binding of serum 6 to linear peptides of protein X1 of SARS-CoV Urbani / Binding of serum 37 to linear peptides of protein X1 of SARS-CoV Urbani / Binding of serum 6 to looped/cyclic peptide (PEPSCAN-ELISA) / Binding of serum 37 to looped/cyclic peptide (PEPSCAN-ELISA) / Binding of serum 37 to looped/cyclic peptides of protein X1 of SARS-CoV Urbani / Binding of serum 6 to linear peptides of protein X2 / Binding of serum 37 to linear peptides of protein X2 / Binding of serum 37 to looped/cyclic peptides of protein X2 of SARS-CoV Urbani / Binding of serum 6 to linear peptides of protein M of SARS-CoV Urbani / Binding of serum 37 to linear peptides of protein M of SARS-CoV Urbani / Binding of serum 6 to looped/cyclic peptides of protein M of SARS-CoV Urbani / Binding of serum 37 to looped/cyclic peptides of protein M of SARS-CoV Urbani / Binding of serum 6 to linear peptides of protein X3 of SARS-CoV Urbani / Binding of serum 37 to linear peptides of protein X3 of SARS-CoV Urbani / Binding of serum 37 to looped/cyclic peptides of protein X3 of SARS-CoV Urbani / Binding of serum 6 to linear peptides of protein X4 of SARS-CoV Urbani / Binding of serum 37 to linear peptides of protein X4 of SARS-CoV Urbani / Binding of serum 37 to looped/cyclic peptides of protein X4 of SARS-CoV Urbani / Binding of serum 6 to linear peptides of protein X5 of SARS-CoV Urbani / Binding of serum 37 to linear peptides of protein X5 of SARS-CoV Urbani / Binding of serum 37 to looped/cyclic peptides of protein X5 of SARS-CoV Urbani / Binding of serum 6 to linear peptides of protein N of SARS-CoV Urbani / Binding of serum 37 to linear peptides of protein N of SARS-CoV Urbani / Binding of serum 6 to linear peptide (PEPSCAN-ELISA) / Binding of serum 1a to looped/cyclic peptides of protein N of SARS-CoV Urbani / Binding of serum 1b to looped/cyclic peptides of protein N of SARS-CoV Urbani / Binding of serum 2 to looped/cyclic peptides of protein N of SARS-CoV Urbani / Binding of serum 6 to looped/cyclic peptides of protein N of SARS-CoV Urbani / Binding of serum 37 to looped/cyclic peptides of protein N of SARS-CoV Urbani / Binding of serum 62 to looped/cyclic peptides of protein N of SARS-CoV Urbani / Binding of serum London to looped/cyclic peptides of protein N of SARS-CoV Urbani / Binding of serum SARS-green to looped/cyclic peptides of protein N of SARS-CoV Urbani: unit not given here"}}, "data": [{"sequence": "MEAQFLYLYALIYFL", "values": [{"measurement": "Binding of a rabbit serum to linear peptides", "setting": "[1]", "value": 0.1}, {"measurement": "Binding of a rabbit serum to looped peptides", "setting": "[1]", "value": 0.5}, {"measurement": "Binding of Control Serum Blood-Bank to Looped peptides", "setting": "[2]", "value": 0.4}, {"measurement": "Binding of Control serum Blood-bank to linear peptides", "setting": "[2]", "value": 0.2}, {"measurement": "Binding of Control serum LUMC to linear peptides", "setting": "[2]", "value": 0.5}, {"measurement": "Binding of Control serum LUMC to looped peptides", "setting": "[2]", "value": 0.5}, {"measurement": "Binding of serum 1a to linear peptides of protein X1 of SARS-CoV Urbani", "setting": "[3]", "value": 0.7}, {"measurement": "Binding of serum 1a to looped/cyclic peptide (PEPSCAN-ELISA)", "setting": "[3]", "value": 0.5}, {"measurement": "Binding of serum 1b to linear peptides of protein X1 of SARS-CoV Urbani", "setting": "[3]", "value": 0.6}, {"measurement": "Binding of serum 1b to looped/cyclic peptide (PEPSCAN-ELISA)", "setting": "[3]", "value": 0.3}, {"measurement": "Binding of serum 2 to linear peptides of protein X1 of SARS-CoV Urbani", "setting": "[3]", "value": 0.5}, {"measurement": "Binding of serum 2 to looped/cyclic peptide (PEPSCAN-ELISA)", "setting": "[3]", "value": 0.4}, {"measurement": "Binding of serum 6 to linear peptides of protein X1 of SARS-CoV Urbani", "setting": "[3]", "value": 0.4}, {"measurement": "Binding of serum 6 to looped/cyclic peptide (PEPSCAN-ELISA)", "setting": "[3]", "value": 0.2}, {"measurement": "Binding of serum 37 to linear peptides of protein X1 of SARS-CoV Urbani", "setting": "[3]", "value": 0.5}, {"measurement": "Binding of serum 37 to looped/cyclic peptide (PEPSCAN-ELISA)", "setting": "[3]", "value": 0.8}, {"measurement": "Binding of serum 62 to linear peptides of protein X1 of SARS-CoV Urbani", "setting": "[3]", "value": 0.4}, {"measurement": "Binding of serum 62 to looped/cyclic peptide (PEPSCAN-ELISA)", "setting": "[3]", "value": 0.5}, {"measurement": "Binding of serum London to linear peptides of protein X1 of SARS-CoV Urbani", "setting": "[3]", "value": 0.2}, {"measurement": "Binding of serum London to looped/cyclic peptide (PEPSCAN-ELISA)", "setting": "[3]", "value": 0.2}, {"measurement": "Binding of serum SARS-green to linear peptides of protein X1 of SARS-CoV Urbani", "setting": "[3]", "value": 0.0}, {"measurement": "Binding of serum SARS-green to looped/cyclic peptide (PEPSCAN-ELISA)", "setting": "[3]", "value": 0.2}, {"measurement": "Binding of serum SARS-yellow to linear peptides of protein X1 of SARS-CoV Urbani", "setting": "[3]", "value": 0.2}, {"measurement": "Binding of serum SARS-yellow to looped/cyclic peptide (PEPSCAN-ELISA)", "setting": "[3]", "value": 0.4}]}, {"sequence": "MRFFTLGSITAQPVK", "values": [{"measurement": "Binding of a rabbit serum to linear peptides", "setting": "[1]", "value": 0.4}, {"measurement": "Binding of a rabbit serum to looped peptides", "setting": "[1]", "value": 0.2}, {"measurement": "Binding of Control Serum Blood-Bank to Looped peptides", "setting": "[2]", "value": 0.2}, {"measurement": "Binding of Control serum Blood-bank to linear peptides", "setting": "[2]", "value": 0.4}, {"measurement": "Binding of Control serum LUMC to linear peptides", "setting": "[2]", "value": 0.7}, {"measurement": "Binding of Control serum LUMC to looped peptides", "setting": "[2]", "value": 0.4}, {"measurement": "Binding of serum 1a to linear peptides of protein X1 of SARS-CoV Urbani", "setting": "[3]", "value": 0.6}, {"measurement": "Binding of serum 1a to looped/cyclic peptide (PEPSCAN-ELISA)", "setting": "[3]", "value": 0.3}, {"measurement": "Binding of serum 1b to linear peptides of protein X1 of SARS-CoV Urbani", "setting": "[3]", "value": 0.4}, {"measurement": "Binding of serum 1b to looped/cyclic peptide (PEPSCAN-ELISA)", "setting": "[3]", "value": 0.1}, {"measurement": "Binding of serum 2 to linear peptides of protein X1 of SARS-CoV Urbani", "setting": "[3]", "value": 0.4}, {"measurement": "Binding of serum 2 to looped/cyclic peptide (PEPSCAN-ELISA)", "setting": "[3]", "value": 0.1}, {"measurement": "Binding of serum 6 to linear peptides of protein X1 of SARS-CoV Urbani", "setting": "[3]", "value": 0.6}, {"measurement": "Binding of serum 6 to looped/cyclic peptide (PEPSCAN-ELISA)", "setting": "[3]", "value": 0.2}, {"measurement": "Binding of serum 37 to linear peptides of protein X1 of SARS-CoV Urbani", "setting": "[3]", "value": 0.6}, {"measurement": "Binding of serum 37 to looped/cyclic peptide (PEPSCAN-ELISA)", "setting": "[3]", "value": 0.2}, {"measurement": "Binding of serum 62 to linear peptides of protein X1 of SARS-CoV Urbani", "setting": "[3]", "value": 0.4}, {"measurement": "Binding of serum 62 to looped/cyclic peptide (PEPSCAN-ELISA)", "setting": "[3]", "value": 0.3}, {"measurement": "Binding of serum London to linear peptides of protein X1 of SARS-CoV Urbani", "setting": "[3]", "value": 0.5}, {"measurement": "Binding of serum London to looped/cyclic peptide (PEPSCAN-ELISA)", "setting": "[3]", "value": 0.2}, {"measurement": "Binding of serum SARS-green to linear peptides of protein X1 of SARS-CoV Urbani", "setting": "[3]", "value": 0.2}, {"measurement": "Binding of serum SARS-green to looped/cyclic peptide (PEPSCAN-ELISA)", "setting": "[3]", "value": 0.1}, {"measurement": "Binding of serum SARS-yellow to linear peptides of protein X1 of SARS-CoV Urbani", "setting": "[3]", "value": 0.4}, {"measurement": "Binding of serum SARS-yellow to looped/cyclic peptide (PEPSCAN-ELISA)", "setting": "[3]", "value": 0.1}]}, {"sequence": "MSRRRLLACLCKHKK", "values": [{"measurement": "Binding of a rabbit serum to linear peptides", "setting": "[1]", "value": 0.2}, {"measurement": "Binding of a rabbit serum to looped peptides", "setting": "[1]", "value": 0.3}, {"measurement": "Binding of Control Serum Blood-Bank to Looped peptides", "setting": "[2]", "value": 0.3}, {"measurement": "Binding of Control serum Blood-bank to linear peptides", "setting": "[2]", "value": 0.7}, {"measurement": "Binding of Control serum LUMC to linear peptides", "setting": "[2]", "value": 0.5}, {"measurement": "Binding of Control serum LUMC to looped peptides", "setting": "[2]", "value": 0.2}, {"measurement": "Binding of serum 1a to looped/cyclic peptides of protein X2 of SARS-CoV Urbani", "setting": "[3]", "value": 0.2}, {"measurement": "Binding of serum 1b to looped/cyclic peptides of protein X2 of SARS-CoV Urbani", "setting": "[3]", "value": 0.1}, {"measurement": "Binding of serum 2 to looped/cyclic peptides of protein X2 of SARS-CoV Urbani", "setting": "[3]", "value": 0.0}, {"measurement": "Binding of serum 6 to looped/cyclic peptides of protein X2 of SARS-CoV Urbani", "setting": "[3]", "value": 0.1}, {"measurement": "Binding of serum 37 to looped/cyclic peptides of protein X2 of SARS-CoV Urbani", "setting": "[3]", "value": 0.2}, {"measurement": "Binding of serum 62 to looped/cyclic peptides of protein X2 of SARS-CoV Urbani", "setting": "[3]", "value": 0.3}, {"measurement": "Binding of serum London to looped/cyclic peptides of protein X2 of SARS-CoV Urbani", "setting": "[3]", "value": 0.1}, {"measurement": "Binding of serum SARS-green to looped/cyclic peptides of protein X2 of SARS-CoV Urbani", "setting": "[3]", "value": 0.1}, {"measurement": "Binding of serum SARS-yellow to looped/cyclic peptides of protein X2 of SARS-CoV Urbani", "setting": "[3]", "value": 0.1}, {"measurement": "Recognition of the peptide by sera of SARS-CoV infected individuals, and form (linear, looped/cyclic) in which it is recognized", "setting": "[3]", "value": "recognized in linear form"}]}]}
